Data reported in PMC10548512 (Chemical Science, 2023).

System: H1N1pdm09 virus (A/Netherlands/602/2009) I375F mutant
Conditions: 1 h

Work on CC[C@H](C)[C@@H]1NC(=O)[C@H](CS)NC(=O)[C@H](CO)NC(=O)[C@H](CCCNC(=N)N)NC(=O)[C@H](CCCNC(=N)N)NC(=O)[C@H](Cc2ccc(O)cc2)NC(=O)[C@H](CCC(N)=O)NC(=O)[C@H](Cc2ccccc2)NC(=O)[C@H](CC(N)=O)NC(=O)[C@H](CC(C)C)NC(=O)[C@@H]2CSC(=N2)c2cc(ccn2)C[C@@H](C(=O)NCC(N)=O)NC(=O)[C@H](CC(N)=O)NC(=O)[C@H](CC(C)C)NC(=O)[C@H]([C@@H](C)CC)NC(=O)[C@H](CC(N)=O)NC(=O)[C@H](CC(C)C)NC1=O [M3] yielded an IC50 of 364 nM.
